We go through five compounds from patent US6780596B2, “Methods for determining the activity of complex mixtures” (Ashni Naturaceuticals, Inc., priority 1998, dated 2004).

The assay relates to LNCaP prostate cells. The assay is described as follows: Phosphotyrosyl protein expression in LNCaP prostate cells (SDS-PAGE, anti-phosphotyrosine immunoblot). In kind it is cell-based, human. The conditions noted are these: for number of phosphotyrosylprotein bands decreased in staining intensity / affected: of sixteen bands in dividing LNCaP cells, 15 to 90 kDa. An excerpt:
Chemicals: Anti-phosphotyrosine antibodies may be purchased from Upstate Biotechnology (Lake Placid, N.Y.). Saw palmetto (Serenoa repens) extract may be obtained from Ashland Nutritional (Irvine Calif.). All other chemicals may be purchased from Sigma Chemical Company (St. Louis, Mo.) and are the highest purity commercially available.
Human Prostate Cell Line: The LNCaP prostate cell line (CRL-1740) is useful as a model for prostate hyperplasia and may be obtained from the American Type Culture Collection (Bethesda, Md.). LNCaP cells were originally isolated from a person and are characteristic of prostatic carcinoma. They are androgen and estrogen responsive, produce prostate specific antigen (PSA), and prostatic acid phosphatase in culture.
Cell Plating: LNCaP cells may be propagated as monolayers according to the instructions of the supplier. For experiments, cells may be plated at a density of 1×10^5 cells per mL in 100 mm plates, 20 mL per plate, 3 plates per treatment. […]
On day three, a subset of control LNCaP cells is synchronized to Go by reducing the serum concentration of the medium to 0.5%. These cells are termed quiescent, resting or unstimulated LNCaP cells.
After a four-day incubation period with the test materials, the test LNCaP cells may be collected by washing plates three times with ice-cold phosphate-buffered saline, pH 7.4 (PBS) over ice, removed by scraping, pelleted by centrifugation at 4° C. The cell pellet may be lysed for 20 min. in 20 mM Tris buffer (pH 8.0) with 137 mM NaCl, 10% glycerol, 1% Nonidet P-40, 1 mM phenylmethylsulfonyl fluoride, 0.15 units/mL aprotonin, and 1 mM sodium orthovanadate while on wet ice. Cell lysates are collected after centrifugation at 30,000 rpm at 4° C. for 10 minutes to separate cellular debris from lysates.
Gel Electrophoresis: Sodium dodecyl sulfate polyacrylamide gel electrophoresis (PAGE) is performed using 10% polyacrylamide gels, as described by Laemmli, U.K. and Favre, M., 80 Journal of Molecular Biology 575-99 (1973), with the modification that the cell lysates (100 μg protein/lane) are heated at 100° C. for three minutes.
Immunoblotting: The immunoblotting is performed as described by Towbin et al., 76 Proc. Natl. Acad. Sci. USA 4350 (1979), however, a Milliblot SDE electroblot apparatus (Millipore, Bedford, Mass.), is used to transfer proteins from the polyacrylamide gels to an IMMOBILON® membrane filter. Complete transfers are accomplished in 25-30 minutes at 500 mA. Membranes used for blotting are blocked by incubating in TBS (Tris buffered saline, 50 mM Tris, 150 mM NaCl, pH 7.5) containing 5% nonfat dry milk for 30 minutes at room temperature. Phosphotyrosylproteins are visualized by incubation of the blots with the anti-phosphotyrosine antibody in TBST (0.05% Tween 20 in TBS) for two hours and then a second incubation at room temperature with alkaline phosphatase-conjugated secondary antibody diluted 1:1000 in TBST for two hours. The enzymatic reaction is developed for 15 minutes. Molecular weights of immuno-stained proteins are estimated by adding molecular weight standards to reference lanes and staining the membrane filters with amido black 10B.
Blots are translated into TIFF-formatted files with a Microtech 600GS scanner and quantified using Scan Analysis (BIOSOFT™, Cambridge, UK). Summary scans are then printed and peak heights are measured directly from figure. One density unit (Du) is defined as one mm of the resulting peak height.
Protein Determination: Spectrophotometric determination of protein concentration is determined with bicinchoninic acid as reported by Smith, et al. Measurement of protein using bicinchoninic acid. 150 ANAL. BIOCHEM. 76-85 (1985).
Statistical Analysis: Dose responses are defined as three or more consecutive doses resulting in a consistent, reproducible appearance or disappearance of a phosphotyrosylprotein in the immunoblot. […]
On the technique in general: A western blot detects proteins with antibodies after separation by electrophoresis.

On to `CC(C)=CCC/C(C)=C/C=C/C(C)=C/C=C/C(C)=C/C=C/C=C(C)/C=C/C=C(C)/C=C/C=C(\C)CCC=C(C)C` [lycopene], for which the “number of phosphotyrosylprotein bands decreased in staining intensity / affected” value is reported as “fourteen”. Further, the “concentration at which the 15, 17 and 20 kDa phosphotyrosylproteins disappear entirely” value (lowest concentration tested) turned out to be 100 ng/mL.

For `C/C1=C2/[N-][C@H]([C@H](CC(N)=O)[C@@]2(C)CCC(=O)NC[C@@H](C)OP(=O)([O-])O[C@H]2[C@@H](O)[C@@H](n3cnc4cc(C)c(C)cc43)O[C@@H]2CO)[C@]2(C)N=C(/C(C)=C3N=C(/C=C4N=C1[C@@H](CCC(N)=O)C\4(C)C)[C@@H](CCC(N)=O)[C@]\3(C)CC(N)=O)[C@@H](CCC(N)=O)[C@]2(C)CC(N)=O.[CH3-].[Co]` [methylcobalamine], the “number of phosphotyrosylprotein bands decreased in staining intensity / affected” value is reported as “three”. Besides, under “500 μg methylcobalamine/mL”, the “phosphotyrosylproteins at 40 and 50 kDa” value was “faint bands”. Besides, the effective concentration result (effect on phosphotyrosylprotein expression) is reported as “approximately 500 μg/mL”. Also, the “concentration at which the 45 kDa phosphotyrosylprotein disappears entirely” value (methylcobalamine 5, 50 or 500 μg/mL) is 500 µg/mL.

In the case of `CC(C)(C)NC(=O)[C@H]1CC[C@H]2[C@@H]3CC[C@H]4NC(=O)C=C[C@]4(C)[C@H]3CC[C@]12C` [finasteride, Finasteride], the “number of phosphotyrosylprotein bands decreased in staining intensity / affected” value is given as “three”. Under “0.05 μg/mL finasteride”, the “40 kDa band” value is “barely visible”; the “tyrosylphosphorylation of the 28 and 36 kDa proteins” value is “completely eliminated”.

As for `C[C@H]1[C@H](C)CC[C@]2(C(=O)O)CC[C@]3(C)C(=CC[C@@H]4[C@@]5(C)CC[C@H](O)C(C)(C)[C@@H]5CC[C@]43C)[C@H]12` [ursolic acid], the “number of phosphotyrosylprotein bands decreased in staining intensity / affected” value is recorded as “ten”. Besides, the “concentration at which the phosphotyrosylproteins at 28, 30, 50 and 60 kDa are no longer visible” value (highest concentration tested) is 5 µg/mL. Moreover, where the note is “lowest concentration tested”, the “concentration at which the 17, 20, 28 and 34 kDa phosphotyrosylproteins disappear entirely” value was found to be 0.5 µg/mL.

With `CC[C@H](CC[C@@H](C)[C@H]1CC[C@H]2[C@@H]3CC=C4C[C@@H](O)CC[C@]4(C)[C@H]3CC[C@]12C)C(C)C` [beta-sitosterol], the “number of phosphotyrosylprotein bands decreased in staining intensity / affected” value is listed as “four”. For the same compound, the “phosphotyrosylproteins at 45 and 50 kDa” value (50 μg beta-sitosterol/mL) was “faint bands”. Further, where the note is “beta-sitosterol 5, 10 or 50 μg/mL”, the “concentration at which the 36 and 40 kDa phosphotyrosylproteins disappear entirely” value was determined as 10 µg/mL.
